Assay results from PubChem BioAssay AID1259407 (Chemical Carcinogenesis Research Information System (CCRIS), 2018).
Calls of active or inactive are those of the source. No rule for the calls is given here.

System: CCRIS mutagenicity, Ames/micronucleus/aberration tests
Test: CCRIS mutagenicity studies

With `COP(=O)(OC)C(O)C(Cl)(Cl)Cl` (stereo not given) the mutagenic call (End Point: IN VIVO MICRONUCLEUS, Test System: PREIMPLANTATION EMBRYOS, Species: MOUSE, Strain/Sex: ICR FEMALE/EMBRYO, Route: MATERNAL SINGLE IP DOSE, EMBRYO HARVEST ON G.D 3) was “active; positive”, the mutagenic call (End Point: In vivo micronucleus, Test System: Micronucleated, binucleated and multinucleated hepatocytes, Species: Mouse, Strain/Sex: ddY/Male, Route: Intravenous) was “active; positive for binucleated and multinucleated cells when agent administered after” and the mutagenic call (Test System: AMES SALMONELLA TYPHIMURIUM, Strain/Indicator: TA97, Metabolic Activation: NONE, Method: SPOT TEST) was “inactive; negative”. For the same compound, the mutagenic call (Test System: AMES SALMONELLA TYPHIMURIUM, Strain/Indicator: TA97, Metabolic Activation: NONE, Method: STANDARD PLATE) was “inactive; negative”, the mutagenic call (Test System: AMES SALMONELLA TYPHIMURIUM, Strain/Indicator: TA97, Metabolic Activation: RAT, LIVER, S-9, NAPHTHOFLAVONE AND PHENOBARBITAL, Method: STANDARD PLATE) was “inactive; negative” and the mutagenic call (Test System: AMES SALMONELLA TYPHIMURIUM, Strain/Indicator: TA97, Metabolic Activation: RAT, LIVER, S-9, PHENOBARBITAL AND NAPHTHOFLAVONE, Method: SPOT TEST) was “inactive; negative”. For the same compound, the mutagenic call (Test System: AMES SALMONELLA TYPHIMURIUM, Strain/Indicator: TA98, Metabolic Activation: HAMSTER, LIVER, S-9, AROCLOR 1254 (10%), Method: PREINCUBATION) was “inactive; negative”, the mutagenic call (Test System: AMES SALMONELLA TYPHIMURIUM, Strain/Indicator: TA98, Metabolic Activation: NONE, Method: PREINCUBATION) was “inactive; negative” and the mutagenic call (Test System: AMES SALMONELLA TYPHIMURIUM, Strain/Indicator: TA98, Metabolic Activation: NONE, Method: SPOT TEST) was “inactive; negative”. The mutagenic call (Test System: AMES SALMONELLA TYPHIMURIUM, Strain/Indicator: TA98, Metabolic Activation: NONE, Method: STANDARD PLATE) was “inactive; negative”, the mutagenic call (Test System: AMES SALMONELLA TYPHIMURIUM, Strain/Indicator: TA98, Metabolic Activation: RAT, LIVER, S-9, AROCLOR 1254 (10%), Method: PREINCUBATION) was “inactive; negative” and the mutagenic call (Test System: AMES SALMONELLA TYPHIMURIUM, Strain/Indicator: TA98, Metabolic Activation: RAT, LIVER, S-9, NAPHTHOFLAVONE AND PHENOBARBITAL, Method: STANDARD PLATE) was “inactive; negative”. For the same compound, the mutagenic call (Test System: AMES SALMONELLA TYPHIMURIUM, Strain/Indicator: TA98, Metabolic Activation: RAT, LIVER, S-9, PHENOBARBITAL AND NAPHTHOFLAVONE, Method: SPOT TEST) was “inactive; negative”, the mutagenic call (Test System: AMES SALMONELLA TYPHIMURIUM, Strain/Indicator: TA100, Metabolic Activation: HAMSTER, LIVER, S-9, AROCLOR 1254 (10%), Method: PREINCUBATION) was “inactive; negative” and the mutagenic call (Test System: AMES SALMONELLA TYPHIMURIUM, Strain/Indicator: TA100, Metabolic Activation: NONE, Method: PREINCUBATION) was “inactive; negative”. For the same compound, the mutagenic call (Test System: AMES SALMONELLA TYPHIMURIUM, Strain/Indicator: TA100, Metabolic Activation: NONE, Method: SPOT TEST) was “inactive; negative”, the mutagenic call (Test System: AMES SALMONELLA TYPHIMURIUM, Strain/Indicator: TA100, Metabolic Activation: NONE, Method: STANDARD PLATE) was “inactive; negative” and the mutagenic call (Test System: AMES SALMONELLA TYPHIMURIUM, Strain/Indicator: TA100, Metabolic Activation: RAT, LIVER, S-9, AROCLOR 1254 (10%), Method: PREINCUBATION) was “inactive; negative”. For the same compound, the mutagenic call (Test System: AMES SALMONELLA TYPHIMURIUM, Strain/Indicator: TA100, Metabolic Activation: RAT, LIVER, S-9, NAPHTHOFLAVONE AND PHENOBARBITAL, Method: FLUCTUATION TEST) was “inactive; negative”, the mutagenic call (Test System: AMES SALMONELLA TYPHIMURIUM, Strain/Indicator: TA100, Metabolic Activation: RAT, LIVER, S-9, NAPHTHOFLAVONE AND PHENOBARBITAL, Method: PREINCUBATION) was “active; positive” and the mutagenic call (Test System: AMES SALMONELLA TYPHIMURIUM, Strain/Indicator: TA100, Metabolic Activation: RAT, LIVER, S-9, NAPHTHOFLAVONE AND PHENOBARBITAL, Method: STANDARD PLATE) was “inactive; negative”. For the same compound, the mutagenic call (Test System: AMES SALMONELLA TYPHIMURIUM, Strain/Indicator: TA100, Metabolic Activation: RAT, LIVER, S-9, PHENOBARBITAL AND NAPHTHOFLAVONE, Method: SPOT TEST) was “inactive; negative”, the mutagenic call (Test System: AMES SALMONELLA TYPHIMURIUM, Strain/Indicator: TA100, Metabolic Activation: S-9 MIX, Method: STANDARD PLATE) was “active; positive” and the mutagenic call (Test System: AMES SALMONELLA TYPHIMURIUM, Strain/Indicator: TA104, Metabolic Activation: NONE, Method: PREINCUBATION) was “active; positive”. For the same compound, the mutagenic call (Test System: AMES SALMONELLA TYPHIMURIUM, Strain/Indicator: TA104, Metabolic Activation: NONE, Method: STANDARD PLATE) was “inactive; negative”, the mutagenic call (Test System: AMES SALMONELLA TYPHIMURIUM, Strain/Indicator: TA104, Metabolic Activation: RAT, LIVER, S-9, NAPHTHOFLAVONE AND PHENOBARBITAL, Method: PREINCUBATION) was “active; positive” and the mutagenic call (Test System: AMES SALMONELLA TYPHIMURIUM, Strain/Indicator: TA104, Metabolic Activation: RAT, LIVER, S-9, NAPHTHOFLAVONE AND PHENOBARBITAL, Method: STANDARD PLATE) was “inactive; negative”. For the same compound, the mutagenic call (Test System: AMES SALMONELLA TYPHIMURIUM, Strain/Indicator: TA1535, Metabolic Activation: HAMSTER, LIVER, S-9, AROCLOR 1254 (10%), Method: PREINCUBATION) was “inactive; negative”, the mutagenic call (Test System: AMES SALMONELLA TYPHIMURIUM, Strain/Indicator: TA1535, Metabolic Activation: NONE, Method: PREINCUBATION) was “inactive; negative” and the mutagenic call (Test System: AMES SALMONELLA TYPHIMURIUM, Strain/Indicator: TA1535, Metabolic Activation: NONE, Method: SPOT TEST) was “inactive; negative”. For the same compound, the mutagenic call (Test System: AMES SALMONELLA TYPHIMURIUM, Strain/Indicator: TA1535, Metabolic Activation: NONE, Method: STANDARD PLATE) was “inactive; negative”, the mutagenic call (Test System: AMES SALMONELLA TYPHIMURIUM, Strain/Indicator: TA1535, Metabolic Activation: RAT, LIVER, S-9, AROCLOR 1254 (10%), Method: PREINCUBATION) was “inactive; negative” and the mutagenic call (Test System: AMES SALMONELLA TYPHIMURIUM, Strain/Indicator: TA1535, Metabolic Activation: RAT, LIVER, S-9, NAPHTHOFLAVONE AND PHENOBARBITAL, Method: PREINCUBATION) was “inactive; negative”. For the same compound, the mutagenic call (Test System: AMES SALMONELLA TYPHIMURIUM, Strain/Indicator: TA1535, Metabolic Activation: RAT, LIVER, S-9, NAPHTHOFLAVONE AND PHENOBARBITAL, Method: STANDARD PLATE) was “inactive; negative”, the mutagenic call (Test System: AMES SALMONELLA TYPHIMURIUM, Strain/Indicator: TA1535, Metabolic Activation: RAT, LIVER, S-9, PHENOBARBITAL AND NAPHTHOFLAVONE, Method: SPOT TEST) was “inactive; negative” and the mutagenic call (Test System: AMES SALMONELLA TYPHIMURIUM, Strain/Indicator: TA1537, Metabolic Activation: HAMSTER, LIVER, S-9, AROCLOR 1254 (10%), Method: PREINCUBATION) was “inactive; negative”. The mutagenic call (Test System: AMES SALMONELLA TYPHIMURIUM, Strain/Indicator: TA1537, Metabolic Activation: NONE, Method: PREINCUBATION) was “inactive; negative”, the mutagenic call (Test System: AMES SALMONELLA TYPHIMURIUM, Strain/Indicator: TA1537, Metabolic Activation: RAT, LIVER, S-9, AROCLOR 1254 (10%), Method: PREINCUBATION) was “inactive; negative” and the mutagenic call (Test System: CHINESE HAMSTER V-79, Strain/Indicator: V-79/OUABAIN, Metabolic Activation: NONE) was “inactive; negative”. The mutagenic call (Test System: E. COLI, Strain/Indicator: WP2, Metabolic Activation: NONE, Method: STANDARD PLATE) was “active; positive”, the mutagenic call (Test System: E. COLI, Strain/Indicator: WP2, Metabolic Activation: RAT, LIVER, S-9, AROCLOR 1254, Method: STANDARD PLATE) was “active; positive” and the mutagenic call (Test System: E. COLI, Strain/Indicator: WP2 UVRA, Metabolic Activation: NONE, Method: STANDARD PLATE) was “active; positive”. For the same compound, the mutagenic call (Test System: E. COLI, Strain/Indicator: WP2 UVRA, Metabolic Activation: RAT, LIVER, S-9, AROCLOR 1254, Method: STANDARD PLATE) was “active; positive”, the mutagenic call (Test System: UDS HUMAN CELLS, Strain/Indicator: EUE LINE/THY INCORP, Metabolic Activation: NONE, Method: AUTORADIOGRAPHY) was “active; positive” and the mutagenic call (Test System: UDS HUMAN FIBROBLASTS, Strain/Indicator: THY INCORP (NON-S-PHASE), Metabolic Activation: NONE, Method: LIQUID SCINTILLATION COUNTING) was “active; positive”.
